Entries after “also recorded” stand apart in the source; their conditions may differ.
Columns and labels:
[1] = Liver microsomal stability (LCMS/MS); type: in vitro ADME; details: in the presence of liver microsomes
[2] = Plasma stability (LCMS/MS); type: in vitro ADME; details: incubated in plasma
[3] = system: AHR-dependent transcription of the CYP1A1 gene; experiment: CYP1A1 induction in mouse macrophages; type: cell-based
Method: (§1) Mouse macrophages were also used to test AHR-dependent transcription of the CYP1A1 gene in vivo. Finally, the activity of exemplary compounds of Formula (I) described herein was tested in the human […] cell line U937. The U937 cell line is derived from a patient with diffuse histiocytic lymphoma. Tables 2-4 summarize structure-activity relationship data collected for exemplary, non-limiting compounds of Formula (I) described herein.

[4] = LC-MS/MS analysis of plasma after oral dosing of mice; type: in vivo, mouse; details: LC-MS/MS of plasma samples
cyp1a1 [5] = experiment: cyp1a1 expression by q-PCR in mouse Hepa-1c1c7 cells; type: cell-based
Method: (§2) RNA was extracted using TRIzol (Invitrogen) following manufacturer's instructions and 0.1 μg of RNA was converted to cDNA using a high capacity cDNA reverse transcription kit (Invitrogen). qPCR was performed on the Applied Biosystems 7900 using TaqMan® Universal PCR Master Mix (Life Technologies) with TaqMan® (Life Technologies) primers against cyp1a1 (Mm00487218_m1), AhR (Mm00478932_m1), IL-22 (Mm01226722_g1), Foxp3 (Mm00475162_m1), IL-10 (Mm01288386_m1), TNF-a (Mm00443258_m1), IFN-r (Mm01168134_m1). The fold increase from experimental groups to control was calculated using the delta-delta CT method with 18S (Mm00446186_m1) as an internal reference gene. In vitro and in vivo activation of the AhR singling pathway was confirmed by q-PCR characterization of cyp1a1. For in vitro induction, mouse Hepa-1c1c7 were cultured to confluence in 24 well plates in full DMEM followed by 24 hours incubation in tryptophan deficient media. Cells were treated with vehicle control (DMSO), ITE, compound 108, or compound 109 (10 nM-10 μM) for 8 hours in tryptophan deficient media. At the end of treatment, cells were lysed in TRIzol for RNA isolation. To monitor in vivo induction, (0.1-1000 μg) compound 109 was given per mouse via oral gavage in 100 μl of vehicle (1% HPMC, 1% polysorbate 80). After 12 hours, liver, colon, spleen and leukocytes from blood were collected and lysed in TRIzol (Invitrogen) for q-PCR analysis.

DSS induced colitis = DSS induced colitis in mice; type: in vivo, C57BL/6 mice; details: 1 μg/day PO; day 11
Method: C57BL/6 (8-10 week, male) mice were administered drinking water supplemented with 3% (wt/vol) dextran sodium sulfate (DSS; MP Biomedicals) for 7 days followed by a 13 day recovery period with unsupplemented drinking water. Compound 109 or compound 108 were suspended in vehicle (1% HPMC and 1% polysorbate 80 in water) and given daily by oral gavage (1 ug/mouse in 100 uL), starting at day 0. Control mice were administered 100 μL vehicle. Body weight and disease activity index (DAI) were recorded daily. DAI was determined by combining scores of weight loss, stool consistency, blood in stool, activity, and appearance.^1 Scores were determined as follows: change in weight (0: <1%, 1: 1-10%, 2: 10-18%, 3: 18-20%); stool consistency (0: normal, 1: loose stools, 2: diarrhea); stool blood (0: negative, 1: trace blood, 2: bloody stool, 3: gross bleeding), activity (0: normal, 1: low activity, 2: hiding, 3: no response to gentle stimuli) and appearance (0: normal, 1: rigor, 2: hunched posture). On day 7 and day 11, mice were euthanized and colon were removed for length measurement, histology, RNA isolation, and lamina propria mononuclear cell (LPMC) extraction as detailed below.
Dissected colon were cut longitudinally and rolled using the Swiss roll method with the distal side in the center.^2,3 Colons were fixed overnight in 10% neutral buffered formalin, processed for paraffin embedding and sectioned at 5 μm thickness. To visualize and quantify the inflammatory response and crypt loss, hematoxylin and eosin staining (H&E) was performed. Briefly, sections were cleared with xylene, rehydrated through alcohol gradient, stained by hematoxylin, washed by acid and ammonium alcohol, rinsed in water and exposed to Eosin followed by dehydrating through graded alcohols and cleared in xylene. All sections were mounted using Permount (Fisher Scientific) and visualized using a BX41 microscope (Olympus). For histological scoring, 3 transverse sections of Swiss roll were chosen and 9 (100×) images were captured for each section. Images were analyzed for inflammation and crypt structure and scored by a blind observer as follows: inflammation (0: rare inflammatory cells in the lamina propria; 1: increased numbers of inflammatory cells in the lamina propria; 2: confluence of inflammatory cells extending in to the submucosa; 3: transmural extension of the inflammatory infiltrate.); crypt loss (0: none; 1: basal 1/3 damaged; 2: basal 2/3 damaged; 3: only surface epithelium intact; 4: entire crypt and epithelium lost). Inflammation and crypt loss were scored separately and multiplied by a factor of 1-4 to adjust for impacted area of tissue section (1: 0-25%; 2: 25.1-50% affected; 3: 50.1-75% affected; 4: >75% affected).^1,4 To examine goblet cell number, sections were stained by a commercial periodic acid-Schiff (PAS) and Alcian blue kit (Fisher Scientific). For quantification, 3 transverse sections of Swiss roll were chosen per colon and 5 random images at 200x were taken per section in the distal region of the colon. Goblet cell number was counted per image and normalized to colon length by a blind observer using image J.^5
Colonic epithelium and lamina propria cells were isolated as previously described.^6,7 Briefly, colons were dissected and washed with HBSS to remove fecal contents. Colon were opened longitudinally and cut into 2 cm segments. […]

[6] = molecular target: T1, aryl hydrocarbon receptor (AHR) (Homo sapiens, UniProt P35869); experiment: XRE-driven luciferase reporter assay, human HepG2; details: for EC50: XRE luciferase EC50, Human HepG2, least square curve fitting, >10,000 = does not reach 50% of Emax of ITE at 10 μM (highest concentration tested)
T1 sequence (P35869 11-848): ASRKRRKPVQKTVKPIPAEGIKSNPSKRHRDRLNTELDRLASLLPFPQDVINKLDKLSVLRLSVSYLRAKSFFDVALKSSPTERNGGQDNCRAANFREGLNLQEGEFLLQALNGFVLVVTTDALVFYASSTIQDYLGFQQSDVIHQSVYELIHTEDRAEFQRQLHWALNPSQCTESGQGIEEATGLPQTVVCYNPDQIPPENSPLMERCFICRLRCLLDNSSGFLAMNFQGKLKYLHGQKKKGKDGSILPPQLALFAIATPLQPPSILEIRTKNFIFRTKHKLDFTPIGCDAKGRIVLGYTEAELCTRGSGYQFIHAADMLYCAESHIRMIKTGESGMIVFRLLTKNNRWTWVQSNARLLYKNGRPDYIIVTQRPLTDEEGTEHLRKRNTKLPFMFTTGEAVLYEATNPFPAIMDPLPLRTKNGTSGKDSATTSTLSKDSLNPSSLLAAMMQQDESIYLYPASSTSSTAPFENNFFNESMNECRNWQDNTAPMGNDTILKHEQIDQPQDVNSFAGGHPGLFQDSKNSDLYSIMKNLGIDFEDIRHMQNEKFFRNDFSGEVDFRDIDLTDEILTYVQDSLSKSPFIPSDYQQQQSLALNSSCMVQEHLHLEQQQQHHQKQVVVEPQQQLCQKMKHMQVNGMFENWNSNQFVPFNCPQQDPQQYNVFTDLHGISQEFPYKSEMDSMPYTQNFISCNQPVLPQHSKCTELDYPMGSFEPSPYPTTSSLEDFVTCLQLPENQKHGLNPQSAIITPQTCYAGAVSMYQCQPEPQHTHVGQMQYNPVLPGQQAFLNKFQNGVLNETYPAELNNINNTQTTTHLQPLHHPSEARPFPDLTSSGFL
Method: The Human HepG2 cell line is a human liver cancer cell line, and provide a relevant in vitro AHR activity model. These Hep2G cells have been modified to stably express an AHR-responsive (XRE) firefly luciferase reporter gene to give Hep2G-XRE cells. The expression of luciferase should primarily reflect AHR-dependent transcription controlled by XRE.
Transfected cells were treated with AhR agonist (10^−5-10^−12) for 4.5 h in full medium. Cells were lysed and luciferase was activated using the Luciferase Assay System (Promega). Luminescence signals were measured with a FluroStar Omega microplate reader. Luminescence signals of compound treated groups were normalized to vehicle (DMSO) treated control and plotted as concentration dependent fold changes.

cyp1a1 [7] = experiment: In vivo tissue cyp1a1 induction after oral gavage (PD profile); parameters: species or system mouse; details: mice, oral gavage 0.1-1000 μg, 12 hours
Method: as §2, with “After 12 hours, liver, colon, spleen and leukocytes from blood were collected and lysed in TRIzol (Invitrogen) for q-PCR analysis.” left out

[8] = within 8 h; cited from earlier work
AhR [9] = molecular target: T2, AhR (Mus musculus, UniProt P30561); experiment: AhR nuclear translocation assay, mouse Hepa-1c1c7; type: cell-based; details: mouse Hepa-1c1c7, 10 μM, 90 minutes
T2 construct: endogenous in cells; host or cells: Hepa-1c1c7 (mouse hepatoma cell line)
Method: (§3) Mouse Hepa-1c1c7 or human HepG2 cells were seeded in 8 well chamber slides followed by 24 hours incubation in tryptophan deficient media (HBSS with Ca^2+ and Mg^2+, 10% heat inactivated FBS, 1× non-essential amino acids, 1× sodium pyruvate, 4.5 g/L glucose). Cells were treated with vehicle control (DMSO) or 10 μM ITE, compound 108, or compound 109 for 90 minutes in tryptophan deficient media. Following treatment, cells were fixed in 4% formaldehyde and processed according to standard immunofluorescence staining protocol. Primary anti-AhR antibody was applied at 1:100 dilution (Enzo, BML-SA210) and Alexa488 conjugated secondary antibody was applied at 1:500 dilution (Cell Signaling, 4412S). Actin was stained using Alexa 568 conjugated Phalloidin (Fisher). Samples were mounted in anti-fade mounting medium supplemented with DAPI for nuclear staining and imaged with confocal microscopy (Leica SP5×MP, 63× oil lens).

[10] = system: AHR-dependent transcription of the CYP1A1 gene; experiment: CYP1A1 induction in human U937 cells; type: cell-based; details: Human U937, 1 μM
Method: as §1

AhR [11] = molecular target: T3, AhR (Homo sapiens, UniProt P35869); experiment: AhR nuclear translocation assay, human HepG2; type: cell-based; details: human HepG2, 10 μM, 90 minutes
T3 construct: endogenous in cells; host or cells: HepG2 (human liver cancer cell line)
T3 sequence (P35869 11-848): T1 sequence (P35869 11-848)
Method: as §3

[12] = molecular target: T4, aryl hydrocarbon receptor (AHR) (Mus musculus, UniProt P30561); experiment: XRE-driven luciferase reporter assay, mouse Hepa1c1c7; type: cell-based
T4 construct: Transfection was performed with 150 ng XRE-luciferase plasmid (Promega); endogenous in cells; host or cells: Hepa-1c1c7 (mouse hepatoma cell line)
Method: Human HepG2 or mouse Hepa-1c1c7 cells were seeded in 96 well opaque plates at 75,000 cells per well in full medium (DMEM+10% FBS) for 24 hours. Transfection was performed with 150 ng XRE-luciferase plasmid (Promega) with 4:1 Fugene to DNA ratio for 18 hours in Opti-MEM. Transfected cells were treated with AhR agonist (10^−5-10^−12) for 4.5 h in full medium. Cells were lysed and luciferase was activated using the Luciferase Assay System (Promega). Luminescence signals were measured with a FluroStar Omega microplate reader. Luminescence signals of compound treated groups were normalized to vehicle (DMSO) treated control and plotted as concentration dependent fold changes.

[13] = cited from earlier work

T2 sequence (P30561 10-805 limits assumed): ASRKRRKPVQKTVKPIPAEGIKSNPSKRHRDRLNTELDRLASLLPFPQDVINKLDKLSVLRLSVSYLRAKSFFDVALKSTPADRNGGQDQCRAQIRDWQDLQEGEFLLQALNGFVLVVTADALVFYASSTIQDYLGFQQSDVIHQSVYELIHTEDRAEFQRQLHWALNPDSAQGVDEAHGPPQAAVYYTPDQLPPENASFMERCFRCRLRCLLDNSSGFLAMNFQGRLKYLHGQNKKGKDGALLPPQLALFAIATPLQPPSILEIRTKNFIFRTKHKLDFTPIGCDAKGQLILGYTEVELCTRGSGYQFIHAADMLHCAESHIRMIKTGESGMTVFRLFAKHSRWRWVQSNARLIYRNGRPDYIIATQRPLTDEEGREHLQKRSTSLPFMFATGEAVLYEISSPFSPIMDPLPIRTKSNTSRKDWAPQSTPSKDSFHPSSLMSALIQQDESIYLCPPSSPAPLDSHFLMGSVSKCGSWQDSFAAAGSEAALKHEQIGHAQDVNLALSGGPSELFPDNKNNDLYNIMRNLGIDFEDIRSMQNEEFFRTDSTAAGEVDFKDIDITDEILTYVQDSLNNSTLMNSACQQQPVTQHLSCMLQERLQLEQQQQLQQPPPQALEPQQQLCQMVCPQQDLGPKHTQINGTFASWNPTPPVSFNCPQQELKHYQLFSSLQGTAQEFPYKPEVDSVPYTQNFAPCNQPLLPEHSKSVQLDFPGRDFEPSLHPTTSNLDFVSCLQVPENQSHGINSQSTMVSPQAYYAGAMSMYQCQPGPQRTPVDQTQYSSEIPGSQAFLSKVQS
T2 sequence (P53762 whole entry partner): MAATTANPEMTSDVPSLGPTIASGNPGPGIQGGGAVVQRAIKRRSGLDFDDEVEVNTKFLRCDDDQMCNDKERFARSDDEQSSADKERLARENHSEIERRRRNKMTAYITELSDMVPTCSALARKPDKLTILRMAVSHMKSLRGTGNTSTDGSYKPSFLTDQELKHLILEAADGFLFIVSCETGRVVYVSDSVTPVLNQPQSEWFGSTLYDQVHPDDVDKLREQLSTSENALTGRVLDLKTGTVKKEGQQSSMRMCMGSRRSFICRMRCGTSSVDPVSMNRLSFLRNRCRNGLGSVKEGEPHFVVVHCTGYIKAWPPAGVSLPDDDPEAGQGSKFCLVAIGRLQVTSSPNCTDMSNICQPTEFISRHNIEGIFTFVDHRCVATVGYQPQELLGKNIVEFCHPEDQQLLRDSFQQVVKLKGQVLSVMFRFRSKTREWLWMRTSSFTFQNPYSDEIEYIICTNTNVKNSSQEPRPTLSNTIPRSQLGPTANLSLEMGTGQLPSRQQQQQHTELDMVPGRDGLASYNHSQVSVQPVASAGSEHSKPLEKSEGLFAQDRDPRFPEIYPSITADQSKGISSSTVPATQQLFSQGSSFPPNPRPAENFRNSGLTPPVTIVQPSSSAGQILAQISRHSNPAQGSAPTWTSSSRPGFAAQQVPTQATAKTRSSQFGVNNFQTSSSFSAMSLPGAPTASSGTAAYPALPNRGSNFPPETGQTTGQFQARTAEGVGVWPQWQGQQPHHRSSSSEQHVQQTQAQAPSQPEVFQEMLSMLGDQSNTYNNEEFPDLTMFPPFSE
T4 sequence (P30561 10-805 limits assumed): as the sequence (P30561 10-805 limits assumed) above
T4 sequence (P53762 whole entry partner): as the sequence (P53762 whole entry partner) above

COC(=O)c1cccc(C(=O)c2c[nH]c3ccccc23)n1 [Compound 10, methyl 6-(1H-indole-3-carbonyl)pyridine-2-carboxylate]
liver microsomal stability [1]: highly unstable
plasma stability [2]: highly unstable
CYP1A1 induction (% of ITE ± SEM) ([3]; 50 nM): 143 ± 90 % of ITE
CYP1A1 induction (% of ITE ± SEM) ([3]; 5 μM): 88 ± 38 % of ITE
species found in plasma after oral dosing [4]: only revealed the presence of the much less active carboxylic acid derivative

O=C(c1cccc(C(F)(F)F)n1)c1c[nH]c2ccccc12 [Compound 109, 1H-indol-3-yl-[6-(trifluoromethyl)-2-pyridyl]methanone]
cyp1a1 expression relative to ITE and compound 108 (cyp1a1 [5]; mouse Hepa-1c1c7, 10 nM): significantly increased cyp1a1 expression
cyp1a1 expression (qPCR) (cyp1a1 [5]; mouse Hepa-1c1c7, 10 nM-10 μM, 8 hours): induced AhR-dependent cyp1a1 expression; also recorded: dose dependent induction of cyp1a1 expression
colon IL-22 expression, upregulation (DSS induced colitis): 10 fold
EC50 [6]: 2.3 nM
CYP1A1 induction (% of ITE ± SEM) ([3]; 50 nM): 124 ± 5 % of ITE
CYP1A1 induction (% of ITE ± SEM) ([3]; 5 μM): 90 ± 17 % of ITE
cyp1a1 induction in liver and colon tissue (cyp1a1 [7]): induced dose-dependent cyp1a1; also recorded: Robust, dose-dependent cyp1a1 induction
cyp1a1 induction in spleen and blood (WBC) (cyp1a1 [7]): limited cyp1a1 induction was observed in spleen; also recorded: cyp1a1 regulation only at the highest administered doses

COC(=O)c1csc(C(=O)c2c[nH]c3ccccc23)n1 [ITE, 2-(1H-indol-3-ylcarbonyl)-4-thiazolecarboxylic acid methyl ester, reference compound]
ITE inactivated in cell culture [8]: 75%
AhR nuclear translocation (AhR [9]): localized in the nucleus; also recorded: rapid nuclear enrichment of AhR
CYP1A1 induction (% of ITE ± SEM) [10]: 100 % of ITE
liver microsomal stability [1]: highly unstable
plasma stability [2]: highly unstable
XRE luciferase Emax (fold) ([6]; Human HepG2, fold over vehicle): 63 fold
EC50 [6]: 5.3 nM
CYP1A1 induction (% of ITE ± SEM) ([3]; 50 nM): 100 % of ITE
CYP1A1 induction (% of ITE ± SEM) ([3]; 5 μM): 100 % of ITE
AhR nuclear translocation (AhR [11]): localized in the nucleus; also recorded: rapid nuclear enrichment of AhR
EC50 [12]: 30 nM
XRE luciferase Emax (fold) [12]: 79 fold

Clc1cc2c(cc1Cl)Oc1cc(Cl)c(Cl)cc1O2 [TCDD, 2,3,7,8-tetrachlorodibenzo-p-dioxin]
half-life [13]: 2,840 days

From patent US12152016B2, “Aryl hydrocarbon receptor modulators and uses thereof” (Beth Israel Deaconess Medical Center, Inc., priority 2018, dated 2024)
